Experimental data reported in patent US20240400560A1, “BICYCLIC HETEROCYCLIC DERIVATIVE HAVING VIRAL GROWTH INHIBITORY ACTIVITY AND PHARMACEUTICAL COMPOSITION CONTAINING SAME” (Shionogi & Co., Ltd., priority 2021, published 2024).

Each compound was assayed against SARS-CoV-2 3CL protease (Severe acute respiratory syndrome coronavirus 2, UniProt P0DTD1) (assay: Inhibitory activity test against SARS-CoV-2 3CL proteases). Conditions: IC50 (50% SARS-CoV-2 3CL protease inhibitory concentration).
Format: biochemical

| SMILES | IC50 [nM] |
| --- | --- |
| COc1nc(C2=CC3CCC(C2)N3)cc2c1c(=O)n(-c1cncc(Cl)c1)c(=O)n2Cc1cc(F)c(F)c(F)c1 (centres unmarked) [Compound I-0464] | 11 |

Same assay, conditions: read-out: IC50 (50% SARS-CoV-2 3CL protease inhibitory concentration)

| SMILES | IC50 [nM] |
| --- | --- |
| COc1cc(N2C[C@H]3C[C@@H]2CN3)cc2c1c(=O)n(-c1cncc(Cl)c1)c(=O)n2Cc1cc(F)c(F)c(F)c1 [Compound I-0396] | 1.3 |
| COc1nc(N2C[C@H]3C[C@@H]2CN3)cc2c1c(=O)n(-c1cncc(Cl)c1)c(=O)n2Cc1cc(F)c(F)c(F)c1 [Compound I-0459] | < 100 |
| COc1cc(-c2c(Cl)ccc3c2CNC3=O)cc2c1c(=O)n(Cc1ncn(C)n1)c(=O)n2Cc1cc(F)c(F)c(F)c1 [Compound I-0277] | 24 |
| [2H]C1([2H])N(c2cc3c(c(OC)n2)c(=O)n(Cc2ncn(C)n2)c(=O)n3Cc2cc(F)c(F)c(F)c2)C([2H])([2H])C([2H])([2H])C1([2H])[2H] [Compound I-0466] | < 100 |
| COc1nc(-c2cc(C#N)ccc2Cl)cc2c1c(=O)n(Cc1ncn(C)n1)c(=O)n2Cc1cc(F)c(F)c(F)c1 [Compound I-0176] | 33 |
| NC(=O)c1ccc(Cl)c(-c2nc3c(cc2F)c(=O)n(Cc2ccc[nH]c2=O)c(=O)n3Cc2cc(F)c(F)c(F)c2)c1 [Compound I-0301] | 98 |
| Cn1cnc(Cn2c(=O)c3c(F)cc(-c4cc5c(cc4Cl)NC(=O)C5)cc3n(Cc3cc(F)c(F)c(Cl)c3)c2=O)n1 [Compound I-0267] | < 100 |
| Cn1cnc(Cn2c(=O)c3c4c(c(-c5cc(C#N)ccc5Cl)cc3n(Cc3cc(F)c(F)c(F)c3)c2=O)CCCO4)n1 [Compound I-0460] | 9.2 |
| COc1cc(-c2cc(C(C)(C)O)ccc2Cl)cc2c1c(=O)n(-c1cncc(C)c1)c(=O)n2Cc1ccc(F)c(C#N)c1 [Compound I-0061] | 2.9 |
| O=c1[nH]cccc1Cn1c(=O)c2ccc(N3C[C@@H]4CC[C@H]3CN4)cc2n(Cc2cc(F)c(F)c(F)c2)c1=O [Compound I-0380] | 14 |
| COc1cc(-c2cc3c(cc2Cl)NC(=O)C3(C)C)cc2c1c(=O)n(Cc1ncn(C)n1)c(=O)n2Cc1cc(F)c(F)c(F)c1 [Compound I-0275] | 19 |
| COc1cc(-c2nc3c(cc2Cl)NC(=O)C3)cc2c1c(=O)n(Cc1ncn(C)n1)c(=O)n2Cc1cc(F)c(F)c(F)c1 [Compound I-0005] | 10 |
| COc1cc(-c2cc(CC(=O)NCCS(C)(=O)=O)ccc2Cl)cc2c1c(=O)n(-c1cncc(Cl)c1)c(=O)n2Cc1cc(F)c(F)c(F)c1 [Compound I-0202] | 20 |
| Cn1cnc(Cn2c(=O)c3c4c(c(-c5cc(N=S(C)(C)=O)ccc5Cl)cc3n(Cc3cc(F)c(F)c(F)c3)c2=O)CCO4)n1 [Compound I-0472] | < 100 |
| COc1cc(-c2cc(-c3ncc[nH]3)ccc2Cl)cc2c1c(=O)n(-c1cncc(Cl)c1)c(=O)n2Cc1ccc(F)c(C#N)c1 [Compound I-0120] | < 100 |
| COc1cc(-c2cc(-c3ncc[nH]3)ccc2Cl)cc2c1c(=O)n(Cc1ncn(C)n1)c(=O)n2Cc1cc(F)c(F)c(F)c1 [Compound I-0123] | < 100 |
| CC1Cc2c(-c3cc(C#N)ccc3Cl)cc3c(c2O1)c(=O)n(Cc1ncn(C)n1)c(=O)n3Cc1cc(F)c(F)c(F)c1 (centres unmarked) [Compound I-0439] | 4.7 |
| Cc1cncc(-n2c(=O)c3c(Cl)cc(-c4cc(CO)ccc4Cl)cc3n(Cc3cc(F)c(F)c(F)c3)c2=O)c1 [Compound I-0016] | < 100 |
| NC1CCN(c2ccc3c(=O)n(Cc4ccc[nH]c4=O)c(=O)n(Cc4cc(F)c(F)c(F)c4)c3c2)C1 (centres unmarked) [Compound I-0142] | 25 |
| Cn1cnc(Cn2c(=O)c3c(cc(-c4cc(C#N)ccc4Cl)n4cnnc34)n(Cc3cc(F)c(F)c(F)c3)c2=O)n1 [Compound I-0644] | < 100 |

| SMILES | IC50 [nM] |
| --- | --- |
| Cn1cnc(Cn2c(=O)c3c(=O)[nH]c(-c4cc(C#N)ccc4Cl)cc3n(Cc3cc(F)c(F)c(Cl)c3)c2=O)n1 [Compound I-0172] | < 100 |
| COc1nc(-c2cc(C#N)ccc2Cl)cc2c1c(=O)n(-c1cncc(Cl)c1)c(=O)n2Cc1cc(F)c(F)c(F)c1 [Compound I-0178] | < 100 |
| Cn1cnc(Cn2c(=O)c3c4c(c(N5CC[C@@H](O)C5)cc3n(Cc3cc(F)c(F)c(F)c3)c2=O)CCO4)n1 [Compound I-0415] | < 100 |
| COc1nc(N2CC[C@@H](C(N)=O)C2)cc2c1c(=O)n(Cc1ncn(C)n1)c(=O)n2Cc1cc(F)c(F)c(Cl)c1 [Compound I-0445] | 22 |
| COc1nc(-c2cc(C#N)ccc2Cl)cc2c1c(=O)n(Cc1ncn(C)n1)c(=O)n2Cc1cc(F)c(F)c(Cl)c1 [Compound I-0174] | 16 |
| Cn1cnc(Cn2c(=O)c3nnc(N4CC[C@@H](F)C4)cc3n(Cc3cc(F)c(F)c(F)c3)c2=O)n1 [Compound I-0935] | 1000 to 10000 |
| COc1cc(-c2cc(C(C)=O)ccc2Cl)cc2c1c(=O)n(-c1cncc(C)c1)c(=O)n2Cc1ccc(F)c(C#N)c1 [Compound I-0062] | 3.1 |
| Cn1cnc(Cn2c(=O)c3c4c(c(N5C[C@H]6C[C@@H]5CN6)cc3n(Cc3cc(F)c(F)c(F)c3)c2=O)CCO4)n1 [Compound I-0429] | < 100 |
| COc1cc(-c2cc(CC(N)=O)ccc2Cl)cc2c1c(=O)n(-c1cncc(Cl)c1)c(=O)n2Cc1cc(F)c(F)c(F)c1 [Compound I-0206] | < 100 |
| COc1nc(-c2cc3c(cc2Cl)NC(=O)C3)cc2c1c(=O)n(Cc1ncn(C)n1)c(=O)n2Cc1cc(F)c(F)c(F)c1 [Compound I-0032] | 9.4 |
| O=c1[nH]cccc1Cn1c(=O)c2ccc(N3C[C@H]4C[C@@H]3CN4)cc2n(Cc2cc(F)c(F)c(F)c2)c1=O [Compound I-0140] | 1.3 |
| COc1cc(-c2cc3[nH]c(=O)[nH]c3cc2Cl)cc2c1c(=O)n(Cc1ncn(C)n1)c(=O)n2Cc1cc(F)c(F)c(F)c1 [Compound I-0265] | < 100 |
| CCn1c(-c2cc(C#N)ccc2Cl)cc2c(c1=O)c(=O)n(-c1cncc(Cl)c1)c(=O)n2Cc1cc(F)c(F)c(F)c1 [Compound I-0437] | 1.3 |
| COc1cc(-c2cc(C(C)(C)O)ccc2Cl)cc2c1c(=O)n(-c1cncc(Cl)c1)c(=O)n2Cc1cc(F)c(F)c(F)c1 [Compound I-0075] | 18 |
| Cn1cnc(Cn2c(=O)c3c(=O)[nH]c(-c4cc(C#N)ccc4Cl)cc3n(Cc3cc(F)c(F)c(F)c3)c2=O)n1 [Compound I-0177] | 34 |
| COc1cc(-c2cc(CC(=O)O)ccc2Cl)cc2c1c(=O)n(-c1cncc(Cl)c1)c(=O)n2Cc1cc(Cl)ccc1C [Compound I-0198] | < 100 |
| Cn1cnc(Cn2c(=O)c3c(Cl)cc(-c4cc(C#N)ccc4Cl)cc3n(Cc3cc(F)c(F)c(Cl)c3)c2=O)n1 [Compound I-0175] | < 100 |
| Cn1c(-c2cc(C#N)ccc2Cl)cc2c(c1=O)c(=O)n(-c1cncc(Cl)c1)c(=O)n2Cc1cc(F)c(F)c(F)c1 [Compound I-0435] | 1 |
| Cc1cncc(-n2c(=O)c3c(Cl)cc(-c4cc(C#N)ccc4Cl)cc3n(Cc3cc(F)c(F)c(F)c3)c2=O)c1 [Compound I-0012] | < 100 |
| COc1cc(N2C[C@H]3C[C@@H]2CN3)cc2c1c(=O)n(Cc1ncn(C)n1)c(=O)n2Cc1cc(F)c(F)c(F)c1 [Compound I-0395] | 2.2 |

| SMILES | IC50 [nM] |
| --- | --- |
| COc1cc(-c2cc(C(C)(C)O)ccc2Cl)cc2c1c(=O)n(Cc1ncn(C)n1)c(=O)n2Cc1cc(F)c(F)c(F)c1 [Compound I-0276] | 24 |
| COc1nc2c(=O)n(Cc3ncn(C)n3)c(=O)n(Cc3cc(F)c(F)c(F)c3)c2cc1-c1cc(C#N)ccc1Cl [Compound I-0516] | 15 |
| CC1COc2c1c(N1CC[C@@H](O)C1)cc1c2c(=O)n(Cc2ncn(C)n2)c(=O)n1Cc1cc(F)c(F)c(F)c1 (some centres unmarked) [Compound I-0440] | 10 |
| COc1cc(-c2cc(NS(C)(=O)=O)ccc2Cl)cc2c1c(=O)n(-c1cncc(C)c1)c(=O)n2Cc1cc(F)c(F)c(F)c1 [Compound I-0070] | 9.8 |
| CN=S(C)(=O)c1ccc(Cl)c(-c2cc(OC)c3c(=O)n(-c4cncc(Cl)c4)c(=O)n(Cc4cc(F)c(F)c(F)c4)c3c2)c1 (centres unmarked) [Compound I-0199] | 16 |
| COc1cc(-c2cc(C(C)=O)ccc2Cl)cc2c1c(=O)n(Cc1ncn(C)n1)c(=O)n2Cc1cc(F)c(F)cc1F [Compound I-0282] | < 100 |
| O=c1[nH]cccc1Cn1c(=O)c2c(n(Cc3cc(F)c(F)c(F)c3)c1=O)CCCC2 [Compound I-0325] | 450 |
| COc1cc(-c2cc(S(C)(=N)=O)ccc2Cl)cc2c1c(=O)n(-c1cncc(Cl)c1)c(=O)n2Cc1cc(F)c(F)c(F)c1 (centres unmarked) [Compound I-0188] | 5.8 |
| COc1cc(-c2c(Cl)ccc3ncccc23)cc2c1c(=O)n(-c1cncc(C)c1)c(=O)n2Cc1ccc(F)c(C#N)c1 [Compound I-0068] | 5.8 |
| N#Cc1ccc(Cl)c(-c2cc3c(c(=O)[nH]2)c(=O)n(-c2cncc(Cl)c2)c(=O)n3Cc2cc(F)c(F)c(F)c2)c1 [Compound I-0431] | 11 |
| COc1cc(-c2cc3cn[nH]c3cc2Cl)cc2c1c(=O)n(Cc1ncn(C)n1)c(=O)n2Cc1cc(Cl)c(F)cc1F [Compound I-0272] | < 100 |
| COc1cc(-c2cc(C3COC3)ccc2Cl)cc2c1c(=O)n(Cc1ncn(C)n1)c(=O)n2Cc1cc(F)c(F)c(F)c1 [Compound I-0283] | 32 |
| Cn1cnc(Cn2c(=O)c3c(=O)n(C)c(-c4cc(C#N)ccc4Cl)cc3n(Cc3cc(F)c(F)c(F)c3)c2=O)n1 [Compound I-0169] | 2.7 |
| Cn1cnc(Cn2c(=O)c3ccc(N4C[C@H]5C[C@@H]4CN5)cc3n(Cc3cc(F)c(F)c(F)c3)c2=O)n1 [Compound I-0393] | < 100 |
| Cn1cnc(Cn2c(=O)c3c(F)cc(-c4cc5c(cc4Cl)NC(=O)C5)c(F)c3n(Cc3cc(F)c(F)c(F)c3)c2=O)n1 [Compound I-0002] | 6.2 |
| COc1cc(-c2c(Cl)ccc3c2CN(C)C3=O)cc2c1c(=O)n(Cc1ncn(C)n1)c(=O)n2Cc1cc(F)c(F)c(F)c1 [Compound I-0278] | 26 |
| COc1cc(-c2nc(NS(C)(=O)=O)ccc2Cl)cc2c1c(=O)n(-c1cncc(C)c1)c(=O)n2Cc1cc(F)c(F)c(F)c1 [Compound I-0078] | < 100 |
| COc1cc(-c2cc(CC(N)=O)ccc2Cl)cc2c1c(=O)n(-c1cncc(Cl)c1)c(=O)n2Cc1cc(Cl)ccc1C [Compound I-0191] | < 100 |
